Assay results reported in patent publication US20070128217A1 (priority 2003, published 2007).

Columns and labels:
[1] = tested on: control sera (pooled serum of ten healthy LUMC hospital workers; commercial negative donor pooled serum from the Dutch bloodbank); assay type: binding, human; parameters: Binding of Control serum LUMC to linear peptides / Binding of Control serum Blood-bank to linear peptides / Binding of Control serum LUMC to looped peptides / Binding of Control Serum Blood-Bank to Looped peptides / Binding of Control serum LUMC to linear peptides of the protein M of SARS-CoV Urbani / Binding of Control serum Blood-bank to linear peptides of the protein M of SARS-CoV Urbani / Binding of Control serum LUMC to looped peptides of the protein M of SARS-CoV Urbani / Binding of Control Serum Blood-Bank to Looped peptides of the protein M of SARS-CoV Urbani: unit not given here
[2] = tested on: rabbit serum obtained by immunizing a rabbit with the SARS-CoV strain Frankfurt 1; assay type: binding; parameters: Binding of a rabbit serum to linear peptides / Binding of a rabbit serum to looped peptides / Rabbit serum linear peptides / Rabbit serum looped peptides / Binding of a rabbit serum to linear peptides of protein N of SARS-CoV Urbani (Rabbit serum linear peptides) / Binding of a rabbit serum to looped/cyclic peptides of protein N of SARS-CoV Urbani (Rabbit serum looped peptides): unit not given here
[3] = tested on: antibodies in sera from SARS patients (sera 1a, 1b, 2, 6, 37, 62, London, SARS-yellow, SARS-green); assay type: binding, human; parameters: Binding of serum 6 to linear peptides of protein X1 of SARS-CoV Urbani / Binding of serum 37 to linear peptides of protein X1 of SARS-CoV Urbani / Binding of serum 6 to looped/cyclic peptide (PEPSCAN-ELISA) / Binding of serum 37 to looped/cyclic peptide (PEPSCAN-ELISA) / Binding of serum 37 to looped/cyclic peptides of protein X1 of SARS-CoV Urbani / Binding of serum 6 to linear peptides of protein X2 / Binding of serum 37 to linear peptides of protein X2 / Binding of serum 37 to looped/cyclic peptides of protein X2 of SARS-CoV Urbani / Binding of serum 6 to linear peptides of protein M of SARS-CoV Urbani / Binding of serum 37 to linear peptides of protein M of SARS-CoV Urbani / Binding of serum 6 to looped/cyclic peptides of protein M of SARS-CoV Urbani / Binding of serum 37 to looped/cyclic peptides of protein M of SARS-CoV Urbani / Binding of serum 6 to linear peptides of protein X3 of SARS-CoV Urbani / Binding of serum 37 to linear peptides of protein X3 of SARS-CoV Urbani / Binding of serum 37 to looped/cyclic peptides of protein X3 of SARS-CoV Urbani / Binding of serum 6 to linear peptides of protein X4 of SARS-CoV Urbani / Binding of serum 37 to linear peptides of protein X4 of SARS-CoV Urbani / Binding of serum 37 to looped/cyclic peptides of protein X4 of SARS-CoV Urbani / Binding of serum 6 to linear peptides of protein X5 of SARS-CoV Urbani / Binding of serum 37 to linear peptides of protein X5 of SARS-CoV Urbani / Binding of serum 37 to looped/cyclic peptides of protein X5 of SARS-CoV Urbani / Binding of serum 6 to linear peptides of protein N of SARS-CoV Urbani / Binding of serum 37 to linear peptides of protein N of SARS-CoV Urbani / Binding of serum 6 to linear peptide (PEPSCAN-ELISA) / Binding of serum 1a to looped/cyclic peptides of protein N of SARS-CoV Urbani / Binding of serum 1b to looped/cyclic peptides of protein N of SARS-CoV Urbani / Binding of serum 2 to looped/cyclic peptides of protein N of SARS-CoV Urbani / Binding of serum 6 to looped/cyclic peptides of protein N of SARS-CoV Urbani / Binding of serum 37 to looped/cyclic peptides of protein N of SARS-CoV Urbani / Binding of serum 62 to looped/cyclic peptides of protein N of SARS-CoV Urbani / Binding of serum London to looped/cyclic peptides of protein N of SARS-CoV Urbani / Binding of serum SARS-green to looped/cyclic peptides of protein N of SARS-CoV Urbani: unit not given here

WIQFMMSRRRLLACL
Binding of Control Serum Blood-Bank to Looped peptides [1]: 0.3
Binding of Control serum Blood-bank to linear peptides [1]: 0.6
Binding of Control serum LUMC to linear peptides [1]: 0.4
Binding of Control serum LUMC to looped peptides [1]: 0.3
Binding of a rabbit serum to linear peptides [2]: 0.5
Binding of a rabbit serum to looped peptides [2]: 1.3
Binding of serum 1a to linear peptides of protein X2 [3]: 0.6
Binding of serum 1a to looped/cyclic peptides of protein X2 of SARS-CoV Urbani [3]: 0.4
Binding of serum 1b to linear peptides of protein X2 [3]: 0.4
Binding of serum 1b to looped/cyclic peptides of protein X2 of SARS-CoV Urbani [3]: 0.3
Binding of serum 2 to linear peptides of protein X2 [3]: 0.4
Binding of serum 2 to looped/cyclic peptides of protein X2 of SARS-CoV Urbani [3]: 0.1
Binding of serum 6 to linear peptides of protein X2 [3]: 0.5
Binding of serum 6 to looped/cyclic peptides of protein X2 of SARS-CoV Urbani [3]: 0.3
Binding of serum 37 to linear peptides of protein X2 [3]: 0.5
Binding of serum 37 to looped/cyclic peptides of protein X2 of SARS-CoV Urbani [3]: 0.3
Binding of serum 62 to linear peptides of protein X2 [3]: 0.6
Binding of serum 62 to looped/cyclic peptides of protein X2 of SARS-CoV Urbani [3]: 0.3
Binding of serum London to linear peptides of protein X2 [3]: 0.5
Binding of serum London to looped/cyclic peptides of protein X2 of SARS-CoV Urbani [3]: 0.3
Binding of serum SARS-green to linear peptides of protein X2 [3]: 0.5
Binding of serum SARS-green to looped/cyclic peptides of protein X2 of SARS-CoV Urbani [3]: 0.2
Binding of serum SARS-yellow to linear peptides of protein X2 [3]: 0.7
Binding of serum SARS-yellow to looped/cyclic peptides of protein X2 of SARS-CoV Urbani [3]: 0.4

CTPNVTINCQDPAGG
Binding of Control Serum Blood-Bank to Looped peptides [1]: 0.4
Binding of Control serum Blood-bank to linear peptides [1]: 0.7
Binding of Control serum LUMC to linear peptides [1]: 0.3
Binding of Control serum LUMC to looped peptides [1]: 0.4
Rabbit serum linear peptides [2]: 0.4
Rabbit serum looped peptides [2]: 0.0
Binding of serum 1a to linear peptides of protein X5 of SARS-CoV Urbani [3]: 1.0
Binding of serum 1a to looped/cyclic peptides of protein X5 of SARS-CoV Urbani [3]: 0.6
Binding of serum 1b to linear peptides of protein X5 of SARS-CoV Urbani [3]: 0.8
Binding of serum 1b to looped/cyclic peptides of protein X5 of SARS-CoV Urbani [3]: 0.8
Binding of serum 2 to linear peptides of protein X5 of SARS-CoV Urbani [3]: 0.6
Binding of serum 2 to looped/cyclic peptides of protein X5 of SARS-CoV Urbani [3]: 0.3
Binding of serum 6 to linear peptides of protein X5 of SARS-CoV Urbani [3]: 0.6
Binding of serum 6 to looped/cyclic peptides of protein X5 of SARS-CoV Urbani [3]: 0.3
Binding of serum 37 to linear peptides of protein X5 of SARS-CoV Urbani [3]: 0.7
Binding of serum 37 to looped/cyclic peptides of protein X5 of SARS-CoV Urbani [3]: 0.4
Binding of serum 62 to linear peptides of protein X5 of SARS-CoV Urbani [3]: 0.7
Binding of serum 62 to looped/cyclic peptides of protein X5 of SARS-CoV Urbani [3]: 0.3
Binding of serum London to linear peptides of protein X5 of SARS-CoV Urbani [3]: 0.8
Binding of serum London to looped/cyclic peptides of protein X5 of SARS-CoV Urbani [3]: 0.2
Binding of serum SARS-green to linear peptides of protein X5 of SARS-CoV Urbani [3]: 0.5
Binding of serum SARS-green to looped/cyclic peptides of protein X5 of SARS-CoV Urbani [3]: 0.4
Binding of serum SARS-yellow to linear peptides of protein X5 of SARS-CoV Urbani [3]: 0.0
Binding of serum SARS-yellow to looped/cyclic peptides of protein X5 of SARS-CoV Urbani [3]: 0.4

CKSKNPLLYDANYFV
Binding of Control Serum Blood-Bank to Looped peptides [1]: 0.6
Binding of Control serum Blood-bank to linear peptides [1]: 0.5
Binding of Control serum LUMC to linear peptides [1]: 0.8
Binding of Control serum LUMC to looped peptides [1]: 0.8
Binding of a rabbit serum to linear peptides [2]: 0.1
Binding of a rabbit serum to looped peptides [2]: 0.6
Binding of serum 1a to linear peptides of protein X1 of SARS-CoV Urbani [3]: 0.8
Binding of serum 1a to looped/cyclic peptide (PEPSCAN-ELISA) [3]: 0.8
Binding of serum 1b to linear peptides of protein X1 of SARS-CoV Urbani [3]: 0.5
Binding of serum 1b to looped/cyclic peptide (PEPSCAN-ELISA) [3]: 0.6
Binding of serum 2 to linear peptides of protein X1 of SARS-CoV Urbani [3]: 0.5
Binding of serum 2 to looped/cyclic peptide (PEPSCAN-ELISA) [3]: 0.5
Binding of serum 6 to linear peptides of protein X1 of SARS-CoV Urbani [3]: 0.6
Binding of serum 6 to looped/cyclic peptide (PEPSCAN-ELISA) [3]: 0.4
Binding of serum 37 to linear peptides of protein X1 of SARS-CoV Urbani [3]: 0.7
Binding of serum 37 to looped/cyclic peptide (PEPSCAN-ELISA) [3]: 0.8
Binding of serum 62 to linear peptides of protein X1 of SARS-CoV Urbani [3]: 0.5
Binding of serum 62 to looped/cyclic peptide (PEPSCAN-ELISA) [3]: 0.8
Binding of serum London to linear peptides of protein X1 of SARS-CoV Urbani [3]: 0.3
Binding of serum London to looped/cyclic peptide (PEPSCAN-ELISA) [3]: 0.2
Binding of serum SARS-green to linear peptides of protein X1 of SARS-CoV Urbani [3]: 0.2
Binding of serum SARS-green to looped/cyclic peptide (PEPSCAN-ELISA) [3]: 0.3
Binding of serum SARS-yellow to linear peptides of protein X1 of SARS-CoV Urbani [3]: 0.2
Binding of serum SARS-yellow to looped/cyclic peptide (PEPSCAN-ELISA) [3]: 0.5
